# Source: patent US4148907A, “Stereoisomers of 1-(1'benzyl-2'pyrryl)-2-di-sec.-butylaminoethanol and pharmaceutical compositions comprising same” (Etablissement Viridis, priority 1976, dated 1979)
# Key:
# [1] = Analgesic activity, comparison in words (hot plate and tail flick data); type: in vivo; conditions: compared with VIMINOLO
# Method: (§1) [α]436^20 (in methanol c= 2%): -48° C.±3° C. The analgesic activity (ED50) of isomers A and B has been determined via the hot plate test on mice (N/.B Eddy et Coll. J. Pharmacol. 98, 121, 1950) and via the "tail flick" test on rats (D'Amour and Smith; J. Pharmacol. 1941, 72, 74). The resulting values are set forth in the following Table and compared with the values given under identical conditions for VIMINOLO and the "R2 " Compound referred to hereinabove (Pharmacological Research Communications 8, 111 (1976)).
# [2] = Acute toxicity (LD50), method of Litchfield and Wilcoxson; conditions: in vivo, ip
# Text: The acute toxicity values (LD50) have been determined by the method of Litchfield and Wilcoxson (J. Pharmacol. 1949, 96, 99) both for the new compounds of this invention and for VIMINOLO and the "R2 " Compound.
# rats [3] = conditions: comparison values given under identical conditions (Pharmacological Research Communications 8, 111 (1976)); cited from earlier work
# mice [4] = conditions: comparison values given under identical conditions (Pharmacological Research Communications 8, 111 (1976)); cited from earlier work
# [5] = compared with other isomers, racemic compound or the disclosed class; cited from earlier work
# [6] = Therapeutic index (LD50/ED50 tail flick); type: in vivo; conditions: ratio of LD50/ED50, ED50 from the tail flick test
# Text: The superiority of new Compounds A and B is also evident from the therapeutic indexes which have been calculated as a ratio of LD50 /ED50' taking as the ED50 value that which is obtained by the tail flick test.
# rats [7] = assay: "tail flick" test on rats (analgesic activity, ED50); type: in vivo; conditions: Rattus norvegicus, sc
# Method: as §1
# mice [8] = assay: Hot plate test on mice (analgesic activity, ED50); type: in vivo; conditions: Mus musculus, sc
# Method: as §1
SMILES,analgesic activity relative to VIMINOLO [1],LD50 [2] [mg/kg],ED50 Tail Flick s.c. (rats [3]) [mg/kg],ED50 hot plate s.c (mice [4]) [mg/kg],analgesic activity (prior patents) [5],T.I. (therapeutic index) [6],ED50 (rats [7]) [mg/kg],ED50 (mice [8]) [mg/kg]
"CCC(C)N(CC(O)c1cccn1Cc1ccccc1Cl)C(C)CC (single isomer, unassigned) [""R2 "" Compound]",surprisingly more active than VIMINOLO,230,0.71,1.15,"much more active than the other isomers and also, more active than the corresponding racemic compound ""VIMINOLO""",324,,
"CC[C@@H](C)N(CC(O)c1cccn1Cc1ccccc1F)[C@H](C)CC (single isomer, unassigned) [Isomer A]",,384,,,,872,0.44,0.65
"CC[C@@H](C)N(CC(O)c1cccn1Cc1ccccc1C(F)(F)F)[C@H](C)CC (single isomer, unassigned) [Isomer B]",,358,,,,942,0.38,0.6
"CCC(C)N(CC(O)c1cccn1Cc1ccccc1Cl)C(C)CC (stereo not drawn) [VIMINOLO, 1-[1'(o-chlorobenzyl)-2'-pyrryl]-2-di-sec.-butylaminoethanol]",,167,12.5,,most active compound within the disclosed class of aminoethanols,13.36,,
